Experiment [1] deals with T1, GPR35 (Homo sapiens, UniProt Q9HC97). Briefly: Tango β-arrestin translocation gene reporter assay in U2OS-GPR35-bla cells. The conditions noted are these: for Potency EC50, Tango / EC50: β-arrestin translocation, tested up to 1mM, mean ± S.D.; for Potency EC50, Tango: n = 4; for Efficacy Tango (%zaprinast): normalized to maximal response of zaprinast (100%); for EC50: n = 4, read-out: Potency EC50, Tango. Also on record: host or cells: U2OS (Tango U2OS-GPR35-bla). Type of experiment: cell-based. As for the experimental part: (§1) Tango assays were performed in engineered U2OS-GPR35-bla cell line. This cell line permits an endpoint measurement of the activity of agonists specific to the GPR35 activation-induced β-arrestin translocation. Specifically, 10000 U2OS-GPR35-bla cells per well were seeded in 384-well, black-wall, clear bottom assay plates with low fluorescence background (Corning). After overnight culture, the cells were stimulated with ligands for 5 h at 37 °C under 5% CO2, and then loaded with the cell permeable LiveBLAzer™ fluorescence resonance energy transfer (FRET) B/G substrate. After 2 h incubation the coumarin to fluorescein ratio was measured using Victor 4 plate reader (PerkinElmer, Waltham, MA, USA).
Background: Reporter assays use an easily measured gene product as a stand-in for the process of interest.
Target sequence in this assay (Q9HC97 whole entry, species assumed): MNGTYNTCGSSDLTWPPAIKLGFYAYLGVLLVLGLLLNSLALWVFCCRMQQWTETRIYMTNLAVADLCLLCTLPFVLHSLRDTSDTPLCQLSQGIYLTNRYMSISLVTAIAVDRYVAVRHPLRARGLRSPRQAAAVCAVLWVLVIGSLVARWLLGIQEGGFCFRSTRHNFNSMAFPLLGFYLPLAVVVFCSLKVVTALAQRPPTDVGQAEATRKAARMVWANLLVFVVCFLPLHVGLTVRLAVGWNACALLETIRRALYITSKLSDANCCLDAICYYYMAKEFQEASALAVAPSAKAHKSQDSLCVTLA

Experiment [2] deals with T1, GPR35. The experiment in a line: DMR agonist assay in native HT-29 cells. Format: cell-based. Also on record: label-free DMR assays in both native HT-29 and engineered U2OS-GPR35-bla cells; host or cells: HT-29. The conditions noted are these: for Potency EC50, DMR / EC50: mean ± S.D.; for Potency EC50, DMR: n = 4; for Efficacy DMR: maximal DMR amplitude; for EC50: n = 4, read-out: Potency EC50, DMR. As for the experimental part: (§2) DMR assays were performed using an Epic® system (Corning Inc., Corning, NY, USA). This system records a ligand-induced dynamic mass redistribution (DMR) signal of live cells as a shift in resonant wavelength (in picometer, pm) of a resonant waveguide grating biosensor. The DMR signal obtained is a real-time kinetic response that provides a holistic view of ligand-receptor interaction(s) and its functional consequence in the cells. For HT-29 cells 30,000 cells per well were seeded into 384well Epic® biosensor plates (Corning) and cultured overnight. For U2OS and U2OS-GPR35-bla cells 18,000 cells per well were seeded and cultured overnight. These cells were then washed twice using a plate washer, maintained with Hank’s balanced salt solution (1 × HBSS) and further incubated inside the Epic® system for 1 h. DMR agonist profiling proceeds with a 2-min baseline, followed by compound addition and monitoring the compound-induced responses for about 1 h. […] All DMR signals were background corrected.
Target sequence in this assay (Q9HC97 whole entry): as the sequence (Q9HC97 whole entry, species assumed) above

In experiment [3] the target is T1, GPR35. Briefly: DMR antagonist assay in HT-29 cells (preincubation with antagonist, then agonist at fixed dose). Type of experiment: cell-based. On the set-up: label-free DMR assays in both native HT-29 and engineered U2OS-GPR35-bla cells; host or cells: HT-29. The conditions noted are these: 500 μM catechol; for Blockage of the agonist-induced DMR by ML-145: label = agonist at fixed dose: 64 μM propyl gallate, 200 or 100 μM syringic acid, 16 μM benserazide, 20 μM (+)-taxifolin, 100 μM fenoldopam; for Effect of antagonist on the catechol DMR: label = antagonist. As for the experimental part: as §2
Target sequence in this assay (Q9HC97 whole entry): as the sequence (Q9HC97 whole entry, species assumed) above

Experiment [4] addresses T1, GPR35. The experiment in a line: ML-145 inhibition of Tango signals of agonists at a fixed dose in U2OS-GPR35-bla cells. Format: cell-based. On the set-up: host or cells: U2OS (Tango U2OS-GPR35-bla). The conditions noted are these: label = agonist at fixed dose: 10 μM zaprinast, 10 μM YE210, 50 μM gallic acid, 10 μM pyrogallol, 32 μM benserazide, 250 μM 3-methoxycatechol. As for the experimental part: as §1
Target sequence in this assay (Q9HC97 whole entry, species assumed): as above

For experiment [5], the system named is parental U2OS cells. Briefly: DMR agonist assay in parental U2OS cells. Type of experiment: cell-based. Conditions: parental U2OS cells without GPR35. As for the experimental part: as §2
The target in experiment [6] is T1, GPR35. Conditions: previously found; cited from earlier work.
Target sequence in this assay (Q9HC97 whole entry): as the sequence (Q9HC97 whole entry, species assumed) above
Experiment [7] has as its target T1, GPR35. The experiment in a line: DMR agonist assay in engineered U2OS-GPR35-bla cells. Also on record: host or cells: U2OS (Tango U2OS-GPR35-bla). Format: cell-based. The conditions noted are these: DMR amplitude at 8min poststimulation; n = 4. As for the experimental part: as §2
Target sequence in this assay (Q9HC97 whole entry, species assumed): as above

This is an account of results in paper PMC3816702, “The Three Catecholics Benserazide, Catechol and Pyrogallol are GPR35 Agonists” (Pharmaceuticals, 2013).

A value given as a limit tells only on which side of the number the result lay.

As to `COc1ccc(C=CC(=O)O)cc1OC` [3,4-Dimethoxycinnamic acid, 3,4-dimethoxycinnamic acid], the “Potency EC50, Tango” value in experiment [1] is “inactive”. Further, the “Potency EC50, DMR” value in experiment [2] is “inactive”.

In the case of `COc1cc(C(=O)O)cc(OC)c1O` [Syringic acid, syringic acid], in experiment [1], the “Efficacy Tango (%zaprinast)” value is recorded as more than 10 %zaprinast and the “Potency EC50, Tango” value is given as “weak”. In addition, the “Blockage of the agonist-induced DMR by ML-145” value in experiment [3] is “completely blocked”. Besides, in experiment [2], the “Efficacy DMR” value was determined as 151 pm and the EC50 is 147 ± 23 µM.

In the case of `COC(=O)[C@@H]1[C@H]2C[C@H]3c4[nH]c5ccccc5c4CCN3C[C@@H]2CC[C@@H]1O` [yohimbine, reference compound], the “Effect of antagonist on the catechol DMR” value in experiment [3] is reported as “neither the β-adrenergic receptor antagonist betaxolol nor α2-adrenergic receptor antagonist yohimbine had any obvious effects”.

On to `CCCOc1ccccc1-c1nc2nn[nH]c2c(=O)[nH]1` [zaprinast, Zaprinast], for which the “Blockage of the agonist Tango signal by ML-145” value in experiment [4] is recorded as “dose-dependently blocked”. Further, in experiment [5], the “DMR activity in the parental U2OS cells” value was “inactive”.

With `O=C(O)/C=C/c1ccc(O)c(O)c1` [caffeic acid], the “GPR35 agonist activity (DMR in HT-29), in words” value in experiment [6] is listed as “weak partial agonist”.

Consider `Cc1c(C(=O)O)sc2c(Br)csc12` [YE210], for which the “Blockage of the agonist Tango signal by ML-145” value in experiment [4] is reported as “dose-dependently blocked”.

Regarding `NC(CO)C(=O)NNCc1ccc(O)c(O)c1O` (stereo not drawn) [Benserazide], the “Blockage of the agonist Tango signal by ML-145” value in experiment [4] is recorded as “dose-dependently blocked”. Moreover, the EC50 was found to be 1 ± 0.13 µM in experiment [7], 7.5 ± 0.6 µM in experiment [1] and 11 ± 0.9 µM in experiment [2]. For the same molecule, in experiment [5], the “DMR activity in the parental U2OS cells” value is “inactive”. The “Efficacy Tango (%zaprinast)” value in experiment [1] amounted to 48 ± 4 %zaprinast. The “Blockage of the agonist-induced DMR by ML-145” value in experiment [3] is “partially blocked”. Also, in experiment [2], the “Efficacy DMR” value was 296 pm.

With `Oc1cccc(O)c1O` [Pyrogallol, pyrogallol], the “Blockage of the agonist Tango signal by ML-145” value in experiment [4] was “dose-dependently blocked”. Also, in experiment [1], the “Efficacy Tango (%zaprinast)” value stood at 113 ± 5 %zaprinast and the EC50 turned out to be 4.5 ± 0.4 µM. Also, in experiment [2], the “Efficacy DMR” value was determined as 210 pm and the EC50 worked out at 1.3 ± 0.1 µM.

For `O=C(O)c1cc(O)c(O)c(O)c1` [Gallic acid, gallic acid, reference compound], in experiment [4], the “Blockage of the agonist Tango signal by ML-145” value was “dose-dependently blocked”. In experiment [1], the “Efficacy Tango (%zaprinast)” value was determined as 77 ± 5 %zaprinast and the EC50 was determined as 12.6 ± 1 µM. Besides, the EC50 in experiment [2] came out at 1.16 ± 0.09 µM.

Turning to `Oc1ccc(C2CNCCc3c2cc(O)c(O)c3Cl)cc1` (stereo not drawn) [Fenoldopam, fenoldopam, reference compound], in experiment [1], the “Efficacy Tango (%zaprinast)” value is reported as 0 %zaprinast and the “Potency EC50, Tango” value was “inactive”. Further, in experiment [3], the “Blockage of the agonist-induced DMR by ML-145” value was “completely blocked”. In experiment [2], the “Efficacy DMR” value stood at 268 pm and the EC50 came to 206 ± 19 µM.

`CC(C)NCC(O)COc1ccc(CCOCC2CC2)cc1` (stereo not drawn) [betaxolol, reference compound]: the “Effect of antagonist on the catechol DMR” value in experiment [3] is listed as “neither the β-adrenergic receptor antagonist betaxolol nor α2-adrenergic receptor antagonist yohimbine had any obvious effects”.

Consider `COc1cccc(O)c1O` [3-Methoxycatechol, 3-methoxycatechol], for which the “Blockage of the agonist Tango signal by ML-145” value in experiment [4] is “dose-dependently blocked”. Moreover, in experiment [1], the “Efficacy Tango (%zaprinast)” value came to 41 ± 3 %zaprinast and the EC50 turned out to be 80.7 ± 6.3 µM. For the same molecule, in experiment [2], the “Efficacy DMR” value is listed as 219 pm and the EC50 was 147 ± 15 µM.

Turning to `Oc1cc(O)c2c(c1)O[C@@H](c1ccc(O)c(O)c1)[C@H](O)C2` [(−)-Catechin, (−)-catechin], the “Potency EC50, Tango” value in experiment [1] is “inactive”. Also, the “Potency EC50, DMR” value in experiment [2] was “inactive”.

With `Oc1ccccc1O` [Catechol, catechol], in experiment [1], the “Efficacy Tango (%zaprinast)” value was found to be 0 %zaprinast and the “Potency EC50, Tango” value is “inactive”. The “Blockage of the agonist-induced DMR by ML-145” value in experiment [3] was “completely blocked”. Also, in experiment [2], the “Efficacy DMR” value came to 207 pm and the EC50 turned out to be 319 ± 27 µM.

In the case of `O=C1c2c(O)cc(O)cc2O[C@H](c2ccc(O)c(O)c2)[C@H]1O` [(+)-Taxifolin, (+)-taxifolin], in experiment [1], the “Efficacy Tango (%zaprinast)” value is on record as more than 8 %zaprinast and the “Potency EC50, Tango” value is on record as “weak”. Further, in experiment [3], the “Blockage of the agonist-induced DMR by ML-145” value is recorded as “completely blocked”. Further, in experiment [2], the “Efficacy DMR” value is reported as 170 pm and the EC50 is 6.6 ± 0.5 µM.

`CCCOC(=O)c1cc(O)c(O)c(O)c1` [Propyl gallate, propyl gallate]: in experiment [1], the “Efficacy Tango (%zaprinast)” value is recorded as more than 8 %zaprinast and the “Potency EC50, Tango” value is reported as “weak”. Besides, the “Blockage of the agonist-induced DMR by ML-145” value in experiment [3] is “completely blocked”. Besides, in experiment [2], the “Efficacy DMR” value was determined as 210 pm and the EC50 came to 20.2 ± 1.9 µM.

Broadly, the EC50 is the midpoint of the concentration-response curve.
